We go through two compounds from ChEMBL document CHEMBL4732142, “Discovery of the First Druggable GPR52 Antagonist to Treat Huntington's Disease” (J Med Chem, 2021).

The species named for series [1] is Mus musculus. In words: Neuroprotective activity in primary striatal neurons from HdhQ140 mouse assessed as rescue of mHTT-induced neuronal survival loss. The series is classed as functional, organism-based. Conditions: Neuron.
Series [2] deals with Mus musculus. In words: Neuroprotective activity in HdhQ140 mouse assessed as decrease in staining intensity of microglia at 0.5 mM, icv by Iba1staining based analysis. The series is classed as functional, organism-based.
Series [3] is described as follows: Drug uptake in mouse brain at 5 mg/kg, iv. The series is classed as ADME, organism-based. The conditions noted are these: in vivo, read-out: Drug uptake.
A short description of series [4]: Neuroprotective activity in HdhQ140 mouse model assessed as alleviation of motor deficiency at 5 mg/kg, iv. The conditions noted are these: in vivo. The series is classed as organism-based.
Series [5] relates to Mus musculus. The series can be described thus: Neuroprotective activity in primary striatal neurons from HdhQ140 mouse assessed as rescue of mHTT-induced neuronal survival loss at 5 mg/kg, iv. The series is classed as functional, organism-based.
In series [6] the test system is Mus musculus. The series can be described thus: Neuroprotective activity in HdhQ140 mouse assessed as decrease in staining intensity of microglia at 5 mg/kg, iv by Iba1staining based analysis. It counts as functional, organism-based.
Series [7] deals with G-protein coupled receptor 52 (Mus musculus, UniProt P0C5J4). The series can be described thus: In-vivo antagonist activity at GPR52 in HdhQ140 mouse model with GPR52 knockdown assessed as decrease in mHTT levels. The series is classed as functional.
G-protein coupled receptor 52, sequence (P0C5J4 whole entry): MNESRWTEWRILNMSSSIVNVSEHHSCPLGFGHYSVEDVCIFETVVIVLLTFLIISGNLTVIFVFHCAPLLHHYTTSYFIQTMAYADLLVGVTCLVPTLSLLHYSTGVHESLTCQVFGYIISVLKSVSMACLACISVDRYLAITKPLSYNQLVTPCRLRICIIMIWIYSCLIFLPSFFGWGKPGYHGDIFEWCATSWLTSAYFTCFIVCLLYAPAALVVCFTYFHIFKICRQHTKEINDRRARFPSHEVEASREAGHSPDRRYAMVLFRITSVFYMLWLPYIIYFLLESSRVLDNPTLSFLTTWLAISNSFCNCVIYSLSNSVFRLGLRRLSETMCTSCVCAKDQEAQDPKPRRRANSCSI

Calls of active or inactive are those of the source. The calls are words filed in the database; no cut-off is given here.

Turning to `O=C(/C=C/CCc1ccccc1)c1cccs1`, the result in series [1], in series [2], in series [5] and in series [6] was Active. In series [3], the concentration worked out at 20 nM. Also, in series [4], the Activity entry is listed as “Toxic”.

In the case of `O=C(/C=C/CCc1ccccc1)CCc1ccccc1`, the IC50 in series [7] turned out to be 6 µM.
